# No end group written: not given here.
# Key:
# [1] = type: physicochemical
# Method: Ras peptides were dissolved in either 100% dimethyl formamide (DMF, American Burdick and Jackson) or 100% dimethyl sulfoxide (DMSO, Fluka UV-spectroscopy grade) at a calculated peptide concentration of 1-4 mM. Following 1 minute in a Sonicor SC-200 bath sonicator at room temperature, the peptide solutions were vortexed, and then centrifuged for 5 minutes at room temperature in an Eppendorf microfuge to remove any undissolved material. 20 µL of the cleared peptide solutions were then added to 80 µL of Buffer D in a dilution series covering a range of peptide concentrations from 0.02 µM up to the maximum solubility limit for each peptide. In each dilution, the solvent concentration was maintained at 20%. These peptides solutions were then centrifuged for 5 minutes at room temperature at 10,000 x g, and the cleared supernatants were divided into 2 parts. One part of each cleared peptide dilution was used in a GAP competition assay: 40 µL was added to a 5 µL solution containing 0.1 mg/mL BSA plus 240 fmol Ha-ras p21-[γ-³²P]GTP. Reactions were initiated upon addition of 5 µL of diluted GAP (10 fmol), and analyzed as described above.
# The other portion of the cleared peptide solution was measured spectrophotometrically to determine solubility and concentration of the peptides. Extinction coefficients were determined by measuring the absorbance at 277 nm of 2 peptides whose exact concentrations were quantitated by amino acid analysis. The extinction coefficients for peptide Ras 17-37 dissolved in buffer D/20% DMF or peptide Ras 91-103 (SEQ ID NO:14)dissolved in water/20% DMSO, were 2580 cm⁻¹M⁻¹ and 2230 cm⁻¹ M⁻¹, respectively. These values were used to determine the exact concentration for each peptide used at each point in the competition assay. In addition, peptide solubility was confirmed by comparing the light scattering at 600 nm for each peptide solution measured before and after centrifugation. Only concentrations reflecting 100% solubility were used in the dose response curves, and the maximum concentration used for each peptide competitor indicates the limit of solubility for that peptide.
# [2] = biological target: T1, S. cerevisiae adenylyl cyclase (Ras Dependent, strain FlD reconstituted with purified Ras) (Saccharomyces cerevisiae, UniProt P08678); assay: Yeast adenylyl cyclase assay, reconstitution of FlD membranes with purified Ras protein; type: biochemical; settings: part B, FlD membranes with 5 µM purified Ras protein, peptide 10 µM
# T1 construct: Since these membranes contain adenylyl cyclase, but are lacking Ras protein; endogenous in cells; host or cells: membranes of S. cerevisiae strain FlD
# T1 sequence (P08678 whole entry): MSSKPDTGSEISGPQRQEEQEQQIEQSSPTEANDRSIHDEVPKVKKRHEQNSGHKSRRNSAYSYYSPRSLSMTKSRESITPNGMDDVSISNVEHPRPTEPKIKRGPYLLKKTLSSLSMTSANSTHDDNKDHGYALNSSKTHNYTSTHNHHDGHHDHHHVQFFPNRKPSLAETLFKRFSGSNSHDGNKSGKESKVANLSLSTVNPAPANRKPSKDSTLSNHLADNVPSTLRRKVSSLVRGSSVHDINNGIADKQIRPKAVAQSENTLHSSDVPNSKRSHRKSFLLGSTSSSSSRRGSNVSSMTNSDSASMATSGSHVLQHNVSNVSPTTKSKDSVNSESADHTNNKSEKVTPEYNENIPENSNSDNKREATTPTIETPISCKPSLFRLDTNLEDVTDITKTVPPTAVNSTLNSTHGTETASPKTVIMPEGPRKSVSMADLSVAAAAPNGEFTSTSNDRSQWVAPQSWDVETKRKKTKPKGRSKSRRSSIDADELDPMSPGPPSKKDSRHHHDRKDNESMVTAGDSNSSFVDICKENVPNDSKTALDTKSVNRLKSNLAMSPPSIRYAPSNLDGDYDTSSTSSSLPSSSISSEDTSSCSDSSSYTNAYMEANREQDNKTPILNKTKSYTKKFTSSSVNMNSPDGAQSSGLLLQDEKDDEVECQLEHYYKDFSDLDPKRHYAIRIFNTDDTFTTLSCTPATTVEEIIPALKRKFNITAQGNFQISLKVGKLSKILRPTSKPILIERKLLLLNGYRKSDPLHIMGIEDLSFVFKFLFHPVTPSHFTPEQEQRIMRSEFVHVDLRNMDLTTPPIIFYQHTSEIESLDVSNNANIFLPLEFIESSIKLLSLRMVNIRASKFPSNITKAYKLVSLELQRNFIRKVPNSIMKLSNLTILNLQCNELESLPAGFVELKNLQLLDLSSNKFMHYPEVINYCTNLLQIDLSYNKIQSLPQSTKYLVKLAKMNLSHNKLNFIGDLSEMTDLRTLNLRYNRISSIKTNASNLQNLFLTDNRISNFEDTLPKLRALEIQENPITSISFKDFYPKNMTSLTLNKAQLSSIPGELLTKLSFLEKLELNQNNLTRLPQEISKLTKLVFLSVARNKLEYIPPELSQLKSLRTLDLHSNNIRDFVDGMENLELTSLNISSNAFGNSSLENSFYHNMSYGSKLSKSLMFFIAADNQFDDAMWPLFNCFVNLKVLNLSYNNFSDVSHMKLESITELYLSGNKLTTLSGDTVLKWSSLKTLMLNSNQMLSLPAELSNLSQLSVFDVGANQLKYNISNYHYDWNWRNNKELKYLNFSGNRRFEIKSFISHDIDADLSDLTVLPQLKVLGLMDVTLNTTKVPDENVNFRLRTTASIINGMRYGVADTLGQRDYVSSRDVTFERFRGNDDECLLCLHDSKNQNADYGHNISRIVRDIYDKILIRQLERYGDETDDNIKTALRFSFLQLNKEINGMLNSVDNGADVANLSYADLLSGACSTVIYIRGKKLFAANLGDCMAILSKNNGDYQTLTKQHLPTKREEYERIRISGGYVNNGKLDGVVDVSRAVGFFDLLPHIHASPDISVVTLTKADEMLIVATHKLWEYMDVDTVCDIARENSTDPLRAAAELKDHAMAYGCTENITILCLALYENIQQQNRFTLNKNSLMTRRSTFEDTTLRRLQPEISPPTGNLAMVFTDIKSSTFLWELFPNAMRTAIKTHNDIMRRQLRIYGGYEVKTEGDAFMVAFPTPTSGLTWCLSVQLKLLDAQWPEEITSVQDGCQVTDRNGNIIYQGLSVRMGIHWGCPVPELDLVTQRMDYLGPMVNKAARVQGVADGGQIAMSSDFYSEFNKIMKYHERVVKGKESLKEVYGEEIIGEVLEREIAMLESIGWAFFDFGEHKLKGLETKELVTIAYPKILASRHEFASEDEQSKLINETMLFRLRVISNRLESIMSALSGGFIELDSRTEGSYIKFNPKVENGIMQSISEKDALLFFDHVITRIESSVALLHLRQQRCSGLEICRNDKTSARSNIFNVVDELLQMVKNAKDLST
# Description: (§1) Another Ras-dependent enzymatic assay was used to extend the observed ability of the peptides of the present invention to inhibit Ras function. This system, yeast adenylyl cyclase assay, measures the Ras-dependent conversion of ATP into cyclic AMP (cAMP). […] Furthermore, in S. cerevisiae, regulation of cAMP metabolism appears to be a major function of Ras. This assay system was used to extend the observed Ras inhibitory activity of the peptides of the present invention, to a Ras function which is GAP-unrelated. S. cerevisiae strain FlD lacks functional Ras proteins, however FlD cells have functional adenylyl cyclase in their cell membrane. […] Similarly, a recombinant S. cerevisiae strain MY1186, lacks yeast Ras proteins but expresses mammalian Ras protein which functions with adenylyl cyclase to regulate cAMP metabolisim in the yeast cells. […] In contrast, S. cerevisiae strain JC377-10B contains a mutant form of adenylyl cyclase which constitutively converts ATP into cAMP with or without Ras.
# (§2) Ras peptides were tested at the indicated concentrations for inhibition of S. cerevisiae adenylyl cyclase activity. […] Ras-independent activity was assayed with membranes from strain JC377-10B (ras-minus, constitutively active adenylyl cyclase).
# (§3) Yeast strain FlD, MY1186 and JC377-10B, were grown in YEHD medium at 30°C. Membrane fractions were prepared from cultures grown to an A₆₆₀ of 0.5 to 1.0 by glusulase digestion [Casperson, G.F. et al., (1983), J. Biol. Chem., 258, pp. 7911-7914], Dounce homogenization of the spheroplasts in buffer containing 50 mM sodium MES [2(N-morpholino) ethanesulfonic acid] […] Adenylyl cyclase assays (100-µL reaction volume) measured the conversion of [α-³²P]ATP to [³²P]cAMP at 30°C, using 50 µg to 100 µg of membrane protein in assays using membranes from yeast strains MY1186 and JC377-10B.. […] Since these membranes contain adenylyl cyclase, but are lacking Ras protein, stimulation of adenylyl cyclase activity may be measured following reconstitution with purified Ras complexed with GTP. […]
# [3] = biological target: T2, S. cerevisiae adenylyl cyclase (Ras Dependent, strain MY1186) (Saccharomyces cerevisiae, UniProt P08678); assay: Yeast adenylyl cyclase assay, Ras-dependent, membranes from strain MY1186 (expresses mammalian Ras); type: biochemical; settings: part A
# T2 construct: S. cerevisiae strain MY1186 lacks endogenous yeast Ras, expresses viral Ha-Ras, and has a Ras-dependent adenylyl cyclase; endogenous in cells; host or cells: membranes of recombinant S. cerevisiae strain MY1186 (cyclase endogenous; Ha-Ras heterologously expressed)
# T2 sequence (P08678 whole entry): as above
# Description: as §1, §2, §3
Compound,Maximum Solubility [1] [µM],%Inhibition of Adenylyl Cyclase Activity Ras Dependent [2] [%],%Inhibition of Adenylyl Cyclase Activity Ras Dependent ([3]; peptide 100 µM) [%],%Inhibition of Adenylyl Cyclase Activity Ras Dependent ([3]; peptide 40 µM) [%],%Inhibition of Adenylyl Cyclase Activity Ras Dependent ([3]; peptide 19 µM) [%]
LIQNHFVDEYDPTIE [Ras 23-37],250,5 ± 1,2,–,–
SALTIQLIQNHFVDEYDPTIE [Ras 17-37],40,–,–,58 ± 2,–
CC[C@H](C)[C@H](NC(=O)[C@H](CC(C)C)NC(=O)[C@H](CCC(N)=O)NC(=O)[C@@H](NC(=O)[C@@H](NC(=O)[C@H](CC(C)C)NC(=O)[C@H](C)NC(=O)[C@@H](N)CO)[C@@H](C)O)[C@@H](C)CC)C(=O)N[C@@H](CCC(N)=O)C(=O)N[C@@H](CC(N)=O)C(=O)N[C@@H](Cc1c[nH]cn1)C(=O)N[C@@H](Cc1ccccc1)C(=O)N[C@H](C(=O)N[C@@H](CC(=O)O)C(=O)N[C@@H](CCC(=O)O)C(=O)N[C@@H](Cc1ccc(O)cc1)C(=O)O)C(C)C [Ras 17-32],19,26 ± 2,–,–,34

# Source: EP0496162A2, “Peptide inhibitors of RAS-GAP interaction” (MERCK & CO. INC., priority 1990, dated 1992)
